Measured values as given in US10385097B2, “Ether compounds for treatment of medical disorders” (Achillion Pharmaceuticals, Inc., priority 2015, dated 2019).
pIC50: −log10 of the molar value.

Molecular target: T1, Human Factor D (Homo sapiens, UniProt P00746)
T1 construct: purified from human serum; purchased Complement Technology, Inc; host or cells: human serum (natural protein, not recombinant)
Experiment: Human Factor D Assay
Format: biochemical
Settings: Table 3; Human Factor D 80 nM, substrate Z-L-Lys-SBzl; read-out: (IC50 (Stars))
Summary of the method: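 Serum-purified factor D (80 nM final) preincubated 5 min at room temperature with compound in 50 mM Tris, 1 M NaCl, pH 7.5. Reaction started with 100 μM Z-L-Lys-SBzl plus 100 μM DTNB; A405 read every 30 s for 30 min; IC50 by nonlinear regression of rates.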

T1 sequence (P00746 26-253): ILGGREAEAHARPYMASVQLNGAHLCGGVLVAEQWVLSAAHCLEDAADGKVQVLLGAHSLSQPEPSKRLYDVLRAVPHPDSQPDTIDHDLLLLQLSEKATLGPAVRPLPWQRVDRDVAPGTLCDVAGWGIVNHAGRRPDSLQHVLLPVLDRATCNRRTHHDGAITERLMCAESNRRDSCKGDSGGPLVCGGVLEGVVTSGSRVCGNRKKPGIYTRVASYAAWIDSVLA

CC(=O)c1nn(CC(=O)N2[C@@H]3C[C@@H]3C[C@H]2C(=O)Nc2nc(Br)ccc2C)c2ccc(Oc3ncc(C)cn3)cc12 [Compound 173, (1R,3S,5R)-2-(2-(3-Acetyl-5-((5-methylpyrimidin-2-yl)oxy)-1H-indazol-1-yl)acetyl)-N-(6-bromo-3-methylpyridin-2-yl)-2-azabicyclo[3.1.0]hexane-3-carboxamide]
pIC50: > 6.00

COc1cc(Br)nc(NC(=O)[C@@H]2C[C@@H](F)CN2C(=O)Cn2nc(C(C)=O)c3cc(Oc4ncc(C)cn4)ccc32)c1 [Compound 174, (2S,4R)-1-(2-(3-Acetyl-5-((5-methylpyrimidin-2-yl)oxy)-1H-indazol-1-yl)acetyl)-N-(6-bromo-4-methoxypyridin-2-yl)-4-fluoropyrrolidine-2-carboxamide]
pIC50: > 6.00

CC(=O)c1nn(CC(=O)N2C[C@H](F)C[C@H]2C(=O)Nc2cccc(Br)n2)c2ccc(Oc3cnc(C)cn3)cc12 [Compound 175, (2S,4R)-1-(2-(3-Acetyl-5-((5-methylpyrazin-2-yl)oxy)-1H-indazol-1-yl)acetyl)-N-(6-bromopyridin-2-yl)-4-fluoropyrrolidine-2-carboxamide]
pIC50: > 6.00

CC(=O)c1nn(CC(=O)N2C[C@H](F)C[C@H]2C(=O)Nc2ccc(F)c(Br)n2)c2ccc(Oc3ncc(C)cn3)cc12 [Compound 176, (2S,4R)-1-(2-(3-Acetyl-5-((5-methylpyrimidin-2-yl)oxy)-1H-indazol-1-yl)acetyl)-N-(6-bromo-5-fluoropyridin-2-yl)-4-fluoropyrrolidine-2-carboxamide]
pIC50: > 6.00

CC(=O)c1nn(CC(=O)N2[C@@H]3C[C@@H]3C[C@H]2C(=O)Nc2ccc(F)c(Br)n2)c2ccc(Oc3ncc(C)cn3)cc12 [Compound 177, (1R,3S,5R)-2-(2-(3-Acetyl-5-((5-methylpyrimidin-2-yl)oxy)-1H-indazol-1-yl)acetyl)-N-(6-bromo-5-fluoropyridin-2-yl)-2-azabicyclo[3.1.0]hexane-3-carboxamide]
pIC50: > 6.00

CC(=O)c1nn(CC(=O)N2C[C@H](F)C[C@H]2C(=O)Nc2ccc(F)c(Br)n2)c2ccc(Oc3cnc(C)cn3)cc12 [Compound 178, (2S,4R)-1-(2-(3-Acetyl-5-((5-methylpyrazin-2-yl)oxy)-1H-indazol-1-yl)acetyl)-N-(6-bromo-5-fluoropyridin-2-yl)-4-fluoropyrrolidine-2-carboxamide]
pIC50: > 6.00

CC(=O)c1nn(CC(=O)N2C[C@H](F)C[C@H]2C(=O)Nc2nc(Br)ccc2C)c2ccc(Oc3cnc(C)cn3)cc12 [Compound 179, (2S,4R)-1-(2-(3-Acetyl-5-((5-methylpyrazin-2-yl)oxy)-1H-indazol-1-yl)acetyl)-N-(6-bromo-3-methylpyridin-2-yl)-4-fluoropyrrolidine-2-carboxamide]
pIC50: > 6.00

CC(=O)c1nn(CC(=O)N2C[C@H](F)C[C@H]2C(=O)Nc2cccc(Br)n2)c2ccc(Oc3cc(C)ncn3)cc12 [Compound 180, (2S,4R)-1-(2-(3-Acetyl-5-((6-methylpyrimidin-4-yl)oxy)-1H-indazol-1-yl)acetyl)-N-(6-bromopyridin-2-yl)-4-fluoropyrrolidine-2-carboxamide]
pIC50: > 6.00

CCOP(=O)(COc1ccc2c(c1)c(C(N)=O)cn2CC(=O)N1[C@@H]2CC[C@@H](C2)[C@H]1C(=O)Nc1cccc(C)n1)OCC [Compound 182, diethyl (((3-Carbamoyl-1-(2-((1R,3S,4S)-3-((6-methylpyridin-2-yl)carbamoyl)-2-azabicyclo[2.2.1]heptan-2-yl)-2-oxoethyl)-1H-indol-5-yl)oxy)methyl)phosphonate]
pIC50: < 5.00

Cc1cccc(NC(=O)[C@@H]2[C@H]3CC[C@H](C3)N2C(=O)Cn2cc(C(N)=O)c3cc(OCP(=O)(O)O)ccc32)n1 [Compound 183, (((3-carbamoyl-1-(2-((1R,3S,4S)-3-((6-methylpyridin-2-yl)carbamoyl)-2-azabicyclo[2.2.1]heptan-2-yl)-2-oxoethyl)-1H-indol-5-yl)oxy)methyl)phosphonic acid]
pIC50: < 5.00

CC(=O)c1nn(CC(=O)N2C[C@H]3C[C@H]3[C@H]2C(=O)Nc2nc(Br)ccc2C2CC2)c2ccc(O[C@@H]3CO[C@H]4[C@@H]3OC[C@H]4O)cc12 [Compound 184, (1R,2S,5S)-3-(2-(3-Acetyl-5-((3R,3aR,6R,6aR)-6-hydroxyhexahydrofuro[3,2-b]furan-3-yloxy)-1H-indazol-1-yl)acetyl)-N-(6-bromo-3-cyclopropylpyridin-2-yl)-3-azabicyclo[3.1.0]hexane-2-carboxamide]
pIC50: > 6.00

CC(=O)c1nn(CC(=O)N2C[C@H]3C[C@H]3[C@H]2C(=O)Nc2nc(Br)ccc2C)c2ccc(O[C@@H]3CO[C@H]4[C@@H]3OC[C@H]4O)cc12 [Compound 185, (1R,2S,5S)-3-(2-(3-Acetyl-5-((3R,3aR,6R,6aR)-6-hydroxyhexahydrofuro[3,2-b]furan-3-yloxy)-1H-indazol-1-yl)acetyl)-N-(6-bromo-3-methylpyridin-2-yl)-3-azabicyclo[3.1.0]hexane-2-carboxamide]
pIC50: > 6.00

Cc1cccc(NC(=O)[C@@H]2[C@H]3CC[C@H](C3)N2C(=O)Cn2cc(C(N)=O)c3cc(OCS(=O)(=O)NC(C)(C)C)ccc32)n1 [Compound 186, 5-((N-(tert-butyl)sulfamoyl)methoxy)-1-(2-((1R,3S,4S)-3-((6-methylpyridin-2-yl)carbamoyl)-2-azabicyclo[2.2.1]heptan-2-yl)-2-oxoethyl)-1H-indole-3-carboxamide]
pIC50: < 5.00

Cc1cccc(NC(=O)[C@@H]2[C@H]3CC[C@H](C3)N2C(=O)Cn2cc(C(N)=O)c3cc(OCS(N)(=O)=O)ccc32)n1 [Compound 187, 1-(2-((1R,3S,4S)-3-((6-Methylpyridin-2-yl)carbamoyl)-2-azabicyclo[2.2.1]heptan-2-yl)-2-oxoethyl)-5-(sulfamoylmethoxy)-1H-indole-3-carboxamide]
pIC50: < 5.00

CC(=O)c1nn(CC(=O)N2C[C@H](F)C[C@H]2C(=O)Nc2cccc(Br)n2)c2ccc(OC3CCOC3)cc12 (stereo partly drawn) [Compound 193, (2S,4R)-1-(2-(3-acetyl-5-((tetrahydrofuran-3-yl)oxy)-1H-indazol-1-yl)acetyl)-N-(6-bromopyridin-2-yl)-4-fluoropyrrolidine-2-carboxamide]
pIC50: > 6.00

CC(=O)c1nn(CC(=O)N2C[C@H](F)C[C@H]2C(=O)Nc2cccc(Br)n2)c2ccc(OC3CCCC3)cc12 [Compound 194, (2S,4R)-1-(2-(3-acetyl-5-(cyclopentyloxy)-1H-indazol-1-yl)acetyl)-N-(6-bromopyridin-2-yl)-4-fluoropyrrolidine-2-carboxamide]
pIC50: > 6.00

CC(=O)c1nn(CC(=O)N2C[C@H](F)C[C@H]2C(=O)Nc2cccc(Br)n2)c2ccc(O[C@@H]3CO[C@H]4[C@@H]3OC[C@H]4O)cc12 [Compound 200, (2S,4R)-1-(2-(3-acetyl-5-(((3R,3aR,6R,6aR)-6-hydroxy-hexahydrofuro[3,2-b]furan-3-yl)oxy)-1H-indazol-1-yl)acetyl)-N-(6-bromopyridin-2-yl)-4-fluoropyrrolidine-2-carboxamide]
pIC50: > 6.00

CC(=O)c1nn(CC(=O)N2C[C@H](F)C[C@H]2C(=O)Nc2cccc(Br)n2)c2cc(OCP(=O)(O)O)ccc12 [Compound 201, (((3-acetyl-1-(2-((2S,4R)-2-((6-bromopyridin-2-yl)carbamoyl)-4-fluoropyrrolidin-1-yl)-2-oxoethyl)-1H-indazol-6-yl)oxy)methyl)phosphonic acid]
pIC50: > 6.00

CC(=O)c1nn(CC(=O)N2[C@H](C(=O)Nc3cccc(Br)n3)C[C@@]3(C)C[C@@H]23)c2cc(OCP(=O)(O)O)ccc12 [Compound 250, (((3-acetyl-1-(2-((1R,3S,5R)-3-((6-bromopyridin-2-yl)carbamoyl)-5-methyl-2-azabicyclo[3.1.0]hexan-2-yl)-2-oxoethyl)-1H-indazol-6-yl)oxy)methyl)phosphonic acid]
pIC50: > 6.00

CC(=O)c1cn(CC(=O)N2C[C@H](F)C[C@H]2C(=O)Nc2cccc(-c3ccccc3Cl)c2F)c2ccc(OCC[S+]([O-])CC(C)(CO)CO)cc12 (stereo partly drawn) [Compound 251, (2S,4R)-1-(2-(3-acetyl-5-(2-(3-hydroxy-2-(hydroxymethyl)-2-methyl-propylsulfinyl)ethoxy)-1H-indol-1-yl)acetyl)-N-(2′-chloro-2-fluorobiphenyl-3-yl)-4-fluoropyrrolidine-2-carboxamide]
pIC50: > 6.00

CC(=O)c1cn(CC(=O)N2C[C@H](F)C[C@H]2C(=O)Nc2cccc(-c3ccccc3Cl)c2F)c2ccc(OCC[S+]([O-])CC3(C)COC3)cc12 (stereo partly drawn) [Compound 252, (2S,4R)-1-(2-(3-acetyl-5-(2-((3-methyloxetan-3-yl)methylsulfinyl)ethoxy)-1H-indol-1-yl)acetyl)-N-(2′-chloro-2-fluorobiphenyl-3-yl)-4-fluoropyrrolidine-2-carboxamide]
pIC50: > 6.00

CC(=O)c1cn(CC(=O)N2C[C@H](F)C[C@H]2C(=O)Nc2cccc(-c3ccccc3Cl)c2F)c2ccc(OCCS(=O)(=O)CC3(C)COC3)cc12 [Compound 253, (2S,4R)-1-(2-(3-acetyl-5-(2-((3-methyloxetan-3-yl)methylsulfonyl)ethoxy)-1H-indol-1-yl)acetyl)-N-(2′-chloro-2-fluorobiphenyl-3-yl)-4-fluoropyrrolidine-2-carboxamide]
pIC50: > 6.00
